Several values for one entry are separate records, joined by “and”; a condition that tells them apart may be missing. Equal entries are not always repeated.
Columns and labels:
Assay type in all cases: cell-based
[1] = target: 320 non-olfactory GPCRs (Homo sapiens, UniProt P21728)
[2] = target: 320 non-olfactory GPCRs (Homo sapiens, UniProt Q96PE1)
[3] = target: T1, 320 non-olfactory GPCRs (Homo sapiens, UniProt P46663)
T1 construct: expressed in transfected cells; host or cells: HTLA cells

[4] = target: T2, 320 non-olfactory GPCRs (Homo sapiens, UniProt Q02643)
T2 construct: expressed in transfected cells; host or cells: HTLA cells
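Note: compound tested at 1 µM final concentration.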

T2 sequence (Q02643 23-423): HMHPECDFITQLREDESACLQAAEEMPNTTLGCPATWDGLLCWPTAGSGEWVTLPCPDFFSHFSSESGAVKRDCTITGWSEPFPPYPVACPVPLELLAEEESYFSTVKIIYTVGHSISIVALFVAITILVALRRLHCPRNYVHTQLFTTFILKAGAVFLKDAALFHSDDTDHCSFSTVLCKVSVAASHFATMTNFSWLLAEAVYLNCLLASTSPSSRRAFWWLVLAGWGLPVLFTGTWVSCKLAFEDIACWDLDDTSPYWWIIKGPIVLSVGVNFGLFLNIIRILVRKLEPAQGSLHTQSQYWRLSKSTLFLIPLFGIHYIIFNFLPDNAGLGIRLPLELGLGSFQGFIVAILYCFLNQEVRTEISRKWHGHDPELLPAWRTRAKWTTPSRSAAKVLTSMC
T1 sequence (P46663 whole entry): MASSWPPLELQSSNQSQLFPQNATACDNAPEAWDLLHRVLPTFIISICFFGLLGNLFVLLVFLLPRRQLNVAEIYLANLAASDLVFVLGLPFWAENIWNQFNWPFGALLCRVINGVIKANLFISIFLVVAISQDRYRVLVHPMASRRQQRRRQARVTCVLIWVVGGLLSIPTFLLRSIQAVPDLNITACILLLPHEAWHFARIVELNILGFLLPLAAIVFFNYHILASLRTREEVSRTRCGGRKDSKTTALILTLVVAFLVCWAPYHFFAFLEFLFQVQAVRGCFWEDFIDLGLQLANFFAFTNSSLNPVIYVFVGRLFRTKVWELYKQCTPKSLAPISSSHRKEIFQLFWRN
Sequence of 320 non-olfactory GPCRs (Homo sapiens, UniProt P21728) (P21728 whole entry): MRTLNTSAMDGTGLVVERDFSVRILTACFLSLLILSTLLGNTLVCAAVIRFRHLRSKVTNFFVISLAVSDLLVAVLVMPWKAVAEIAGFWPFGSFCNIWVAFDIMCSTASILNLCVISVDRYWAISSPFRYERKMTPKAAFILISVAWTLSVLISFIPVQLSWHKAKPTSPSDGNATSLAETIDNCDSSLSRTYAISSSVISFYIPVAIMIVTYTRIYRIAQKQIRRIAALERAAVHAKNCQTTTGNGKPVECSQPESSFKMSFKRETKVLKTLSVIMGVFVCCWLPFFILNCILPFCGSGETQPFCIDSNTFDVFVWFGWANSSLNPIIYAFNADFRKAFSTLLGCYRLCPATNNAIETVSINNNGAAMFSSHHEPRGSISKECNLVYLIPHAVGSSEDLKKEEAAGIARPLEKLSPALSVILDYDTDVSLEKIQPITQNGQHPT
Sequence of 320 non-olfactory GPCRs (Homo sapiens, UniProt Q96PE1) (Q96PE1 34-1338): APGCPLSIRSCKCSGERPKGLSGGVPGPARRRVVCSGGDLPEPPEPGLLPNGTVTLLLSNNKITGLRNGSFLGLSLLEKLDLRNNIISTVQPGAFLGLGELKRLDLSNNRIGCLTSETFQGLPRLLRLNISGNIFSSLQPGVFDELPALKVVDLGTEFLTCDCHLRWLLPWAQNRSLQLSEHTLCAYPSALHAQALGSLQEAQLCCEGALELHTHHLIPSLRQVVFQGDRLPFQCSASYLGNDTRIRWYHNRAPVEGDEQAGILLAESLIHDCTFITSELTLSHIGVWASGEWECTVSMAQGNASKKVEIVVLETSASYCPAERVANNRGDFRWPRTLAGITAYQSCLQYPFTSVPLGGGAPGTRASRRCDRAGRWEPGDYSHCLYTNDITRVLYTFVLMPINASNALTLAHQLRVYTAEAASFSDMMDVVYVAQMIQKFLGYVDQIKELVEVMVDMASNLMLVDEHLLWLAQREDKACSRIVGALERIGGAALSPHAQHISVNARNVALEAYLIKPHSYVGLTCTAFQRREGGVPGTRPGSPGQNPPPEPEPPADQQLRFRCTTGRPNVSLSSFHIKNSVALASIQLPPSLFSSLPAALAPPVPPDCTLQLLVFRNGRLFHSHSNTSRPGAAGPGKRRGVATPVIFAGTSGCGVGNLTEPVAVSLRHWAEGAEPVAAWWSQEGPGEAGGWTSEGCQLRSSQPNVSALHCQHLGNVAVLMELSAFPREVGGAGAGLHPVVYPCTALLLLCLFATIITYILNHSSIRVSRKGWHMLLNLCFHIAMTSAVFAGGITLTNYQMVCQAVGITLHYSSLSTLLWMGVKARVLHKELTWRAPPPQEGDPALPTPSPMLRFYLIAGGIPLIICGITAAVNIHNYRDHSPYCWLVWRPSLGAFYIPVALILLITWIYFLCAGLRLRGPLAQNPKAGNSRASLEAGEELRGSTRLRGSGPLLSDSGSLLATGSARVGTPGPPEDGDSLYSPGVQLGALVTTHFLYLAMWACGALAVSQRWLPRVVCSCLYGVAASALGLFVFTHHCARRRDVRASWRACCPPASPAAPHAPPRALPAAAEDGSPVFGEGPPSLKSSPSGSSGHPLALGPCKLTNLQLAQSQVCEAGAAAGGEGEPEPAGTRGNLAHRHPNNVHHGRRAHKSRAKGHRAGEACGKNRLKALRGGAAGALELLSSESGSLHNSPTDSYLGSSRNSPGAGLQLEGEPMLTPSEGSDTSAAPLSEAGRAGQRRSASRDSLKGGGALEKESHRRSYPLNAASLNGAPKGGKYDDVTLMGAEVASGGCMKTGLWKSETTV

SMILES: CCOc1cccc2cc(C(C)NCC3(O)CCCCC3)oc12 (stereo not shown) [O4LE6]
- Fold of Basal [1]: 0.7632 and 1.021 and 0.953 and 0.8141
- Fold of Basal [2]: 1.7314 and 1.927 and 1.697 and 1.27
- Fold of Basal [3]: 0.6703 and 0.866 and 0.6219 and 0.6427
- Fold of Basal [4]: 1.559 and 1.547 and 1.735 and 1.472

Source: publication PMC7044277 (Nature Communications, 2020)
